Data published in patent US11642349B2, “Method for treating cancer” (Epizyme, Inc., priority 2015, dated 2023).

Legend:
MRT xenograft = assay: MRT xenograft-bearing mice; assay type: in vivo
oral bioavailability = settings: in vivo
[1] = system: INI1-deleted malignant rhabdoid tumor (MRT) models; assay: INI1-deleted malignant rhabdoid tumor (MRT) models in vitro; assay type: cell-based

CCN(c1cc(-c2ccc(CN3CCOCC3)cc2)cc(C(=O)NCc2c(C)cc(C)[nH]c2=O)c1C)C1CCOCC1 [EPZ-6438]
apoptosis and differentiation (MRT xenograft): induce apoptosis and differentiation
oral bioavailability (oral bioavailability): orally bioavailable
apoptosis and differentiation [1]: induce apoptosis and differentiation
